ChEMBL document CHEMBL4414672, “Synthesis of certain benzothieno[3,2-d]pyrimidine derivatives as a selective SIRT2 inhibitors” (Eur J Med Chem, 2020)

Tests used:
Format in all cases: functional
NCI-H460 = test: Growth inhibition of human NCI-H460 cells at 10^-5 M incubated for 48 hrs by sulforhodamine B assay; settings: NCI-H460, 48 h, read-out: GI
Malme-3M = test: Growth inhibition of human MALME-3M cells at 10^-5 M incubated for 48 hrs by sulforhodamine B assay; settings: read-out: GI
SF-539 = test: Growth inhibition of human SF539 cells at 10^-5 M incubated for 48 hrs by sulforhodamine B assay; settings: SF-539, 48 h, read-out: GI
SNB-19 = test: Growth inhibition of human SNB19 cells at 10^-5 M incubated for 48 hrs by sulforhodamine B assay; settings: SNB-19, 48 h, read-out: GI
Hs-578T = test: Growth inhibition of human Hs 578T cells at 10^-5 M incubated for 48 hrs by sulforhodamine B assay; settings: read-out: GI
RXF 393 = test: Growth inhibition of human RXF393 cells at 10^-5 M incubated for 48 hrs by sulforhodamine B assay; settings: RXF 393, 48 h, read-out: GI
K562 = test: Growth inhibition of human K562 cells at 10^-5 M incubated for 48 hrs by sulforhodamine B assay; settings: K562, 48 h, read-out: GI
SK-MEL-28 = test: Growth inhibition of human SK-MEL-28 cells at 10^-5 M incubated for 48 hrs by sulforhodamine B assay; settings: SK-MEL-28, 48 h, read-out: GI
HL-60(TB) = test: Growth inhibition of human HL-60(TB) cells at 10^-5 M incubated for 48 hrs by sulforhodamine B assay; settings: HL-60, 48 h, read-out: GI
PC-3 = test: Growth inhibition of human PC3 cells at 10^-5 M incubated for 48 hrs by sulforhodamine B assay; settings: PC-3, 48 h, read-out: GI
SK-MEL-5 = test: Growth inhibition of human SK-MEL-5 cells at 10^-5 M incubated for 48 hrs by sulforhodamine B assay; settings: SK-MEL-5, 48 h, read-out: GI
HCT-15 = test: Growth inhibition of human HCT15 cells at 10^-5 M incubated for 48 hrs by sulforhodamine B assay; settings: HCT-15, 48 h, read-out: GI
786-0 = test: Growth inhibition of human 786-0 cells at 10^-5 M incubated for 48 hrs by sulforhodamine B assay; settings: 786-0, 48 h, read-out: GI
CAKI-1 = test: Growth inhibition of human Caki1 cells at 10^-5 M incubated for 48 hrs by sulforhodamine B assay; settings: CAKI-1, 48 h, read-out: GI
SF-295 = test: Growth inhibition of human SF295 cells at 10^-5 M incubated for 48 hrs by sulforhodamine B assay; settings: SF-295, 48 h, read-out: GI
TK-10 = test: Growth inhibition of human TK10 cells at 10^-5 M incubated for 48 hrs by sulforhodamine B assay; settings: TK-10, 48 h, read-out: GI
SR = test: Growth inhibition of human SR cells at 10^-5 M incubated for 48 hrs by sulforhodamine B assay; settings: read-out: GI
SW-620 = test: Growth inhibition of human SW620 cells at 10^-5 M incubated for 48 hrs by sulforhodamine B assay; settings: SW-620, 48 h, read-out: GI
COLO 205 = test: Growth inhibition of human COLO205 cells at 10^-5 M incubated for 48 hrs by sulforhodamine B assay; settings: COLO 205, 48 h, read-out: GI
NCI-H322M = test: Growth inhibition of human NCI-H322M cells at 10^-5 M incubated for 48 hrs by sulforhodamine B assay; settings: read-out: GI
NCI-H23 = test: Growth inhibition of human NCI-H23 cells at 10^-5 M incubated for 48 hrs by sulforhodamine B assay; settings: NCI-H23, 48 h, read-out: GI
SK-MEL-2 = test: Growth inhibition of human SK-MEL-2 cells at 10^-5 M incubated for 48 hrs by sulforhodamine B assay; settings: SK-MEL-2, 48 h, read-out: GI
NCI-H226 = test: Growth inhibition of human NCI-H226 cells at 10^-5 M incubated for 48 hrs by sulforhodamine B assay; settings: NCI-H226, 48 h, read-out: GI
T47D = test: Growth inhibition of human T47D cells at 10^-5 M incubated for 48 hrs by sulforhodamine B assay; settings: read-out: GI
OVCAR-8 = test: Growth inhibition of human OVCAR8 cells at 10^-5 M incubated for 48 hrs by sulforhodamine B assay; settings: OVCAR-8, 48 h, read-out: GI
UO-31 = test: Growth inhibition of human UO31 cells at 10^-5 M incubated for 48 hrs by sulforhodamine B assay; settings: UO-31, 48 h, read-out: GI
BT-549 = test: Growth inhibition of human BT549 cells at 10^-5 M incubated for 48 hrs by sulforhodamine B assay; settings: BT-549, 48 h, read-out: GI
SF-268 = test: Growth inhibition of human SF268 cells at 10^-5 M incubated for 48 hrs by sulforhodamine B assay; settings: SF-268, 48 h, read-out: GI
A498 = test: Growth inhibition of human A498 cells at 10^-5 M incubated for 48 hrs by sulforhodamine B assay; settings: A498, 48 h, read-out: GI
UACC-62 = test: Growth inhibition of human UACC62 cells at 10^-5 M incubated for 48 hrs by sulforhodamine B assay; settings: UACC-62, 48 h, read-out: GI
M14 = test: Growth inhibition of human M14 cells at 10^-5 M incubated for 48 hrs by sulforhodamine B assay; settings: M14, 48 h, read-out: GI
ACHN = test: Growth inhibition of human ACHN cells at 10^-5 M incubated for 48 hrs by sulforhodamine B assay; settings: read-out: GI
MDA-MB-231 = test: Growth inhibition of human MDA-MB-231 cells at 10^-5 M incubated for 48 hrs by sulforhodamine B assay; settings: MDA-MB-231, 48 h, read-out: GI
HOP-62 = test: Growth inhibition of human HOP62 cells at 10^-5 M incubated for 48 hrs by sulforhodamine B assay; settings: HOP-62, 48 h, read-out: GI
MOLT-4 = test: Growth inhibition of human MOLT4 cells at 10^-5 M incubated for 48 hrs by sulforhodamine B assay; settings: MOLT-4, 48 h, read-out: GI
IGROV-1 = test: Growth inhibition of human IGROV1 cells at 10^-5 M incubated for 48 hrs by sulforhodamine B assay; settings: IGROV-1, 48 h, read-out: GI
SK-OV-3 = test: Growth inhibition of human SKOV3 cells at 10^-5 M incubated for 48 hrs by sulforhodamine B assay; settings: SK-OV-3, 48 h, read-out: GI
MDA-MB-468 = test: Growth inhibition of human MDA-MB-468 cells at 10^-5 M incubated for 48 hrs by sulforhodamine B assay; settings: MDA-MB-468, 48 h, read-out: GI

N=C1Nc2c(sc3ccc(Cl)cc23)C(c2cccc(Br)c2)N1 (stereo not drawn)
inhibition of growth at 10 µM (NCI-H460): 1.37%
inhibition of growth at 10 µM (Malme-3M): 4.36%
inhibition of growth at 10 µM (SF-539): -8.29%
inhibition of growth at 10 µM (SNB-19): 2.72%
inhibition of growth at 10 µM (Hs-578T): -4.14%
inhibition of growth at 10 µM (RXF 393): -10.1%
inhibition of growth at 10 µM (K562): 13.7%
inhibition of growth at 10 µM (SK-MEL-28): -17.9%
inhibition of growth at 10 µM (HL-60(TB)): -2.27%
inhibition of growth at 10 µM (PC-3): 10.2%
inhibition of growth at 10 µM (SK-MEL-5): 3.53%
inhibition of growth at 10 µM (HCT-15): -3.08%
inhibition of growth at 10 µM (786-0): 5.21%
inhibition of growth at 10 µM (CAKI-1): 20.5%
inhibition of growth at 10 µM (SF-295): -3.08%
inhibition of growth at 10 µM (TK-10): -23.2%
inhibition of growth at 10 µM (SR): 22.4%
inhibition of growth at 10 µM (SW-620): -3.61%
inhibition of growth at 10 µM (COLO 205): -0.42%
inhibition of growth at 10 µM (NCI-H322M): 10.3%
inhibition of growth at 10 µM (NCI-H23): 13.7%
inhibition of growth at 10 µM (SK-MEL-2): -8.11%
inhibition of growth at 10 µM (NCI-H226): 21.6%
inhibition of growth at 10 µM (T47D): 11.3%
inhibition of growth at 10 µM (OVCAR-8): -2.43%
inhibition of growth at 10 µM (UO-31): 38.3%
inhibition of growth at 10 µM (BT-549): -21.8%
inhibition of growth at 10 µM (SF-268): 6.03%
inhibition of growth at 10 µM (A498): -4.39%
inhibition of growth at 10 µM (UACC-62): 16.5%
inhibition of growth at 10 µM (M14): 1.65%
inhibition of growth at 10 µM (ACHN): 7.06%
inhibition of growth at 10 µM (MDA-MB-231): 12.6%
inhibition of growth at 10 µM (HOP-62): 8.49%
inhibition of growth at 10 µM (MOLT-4): 7.81%
inhibition of growth at 10 µM (IGROV-1): 13%
inhibition of growth at 10 µM (SK-OV-3): 7.9%
inhibition of growth at 10 µM (MDA-MB-468): 13.6%
